Among the test systems are CAKI-1 renal; HOP-18 NSCLC; SR leukemia; HCT-15 colon; K-562 leukemia; M19-MEL melanoma; EKVX NSCLC; SK-OV-3 ovarian; COLO 205 colon; HS 578T breast.
Assay in all cases: growth of human tumour cells (NCI), 48 h

Several values for one entry are separate records, joined by “and”; a condition that tells them apart may be missing. Identical values can stand only once.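 Following 48 hours of exposure in 96-well plates, responses at five concentrations were used to interpolate endpoints linearly. Here, GI50 denotes the concentration required for 50% inhibition of growth. TGI: total growth inhibition.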

15 molecules from PubChem BioAssay (NCI) can be followed below.

As for `CC(=O)CCn1ncc(Cl)c(Cl)c1=O`, the TGI in the experiment with CAKI-1 renal is 3.66 µM; with HOP-18 NSCLC, 30.5 µM; in the experiment on SR leukemia, 31.5 µM; in the experiment on HCT-15 colon, 20.5 µM; in the experiment with K-562 leukemia it was 18.5 µM; with M19-MEL melanoma it was 17.2 µM. In the experiment on EKVX NSCLC, the TGI amounted to 36.1 µM.

As to `Nc1nc(Cl)cc(NCCCCCCCCNc2cc(Cl)nc(N)n2)n1`, the TGI was 44.7 µM with CAKI-1 renal; more than 100 µM in the experiment with HOP-18 NSCLC; more than 100 µM in the experiment on SK-OV-3 ovarian; 96.8 µM in the experiment on SR leukemia; more than 100 µM in the experiment on HCT-15 colon; more than 100 µM with K-562 leukemia. The TGI in the experiment on M19-MEL melanoma, in the experiment with EKVX NSCLC and in the experiment with COLO 205 colon was more than 100 µM in each case.

Regarding `COC(=O)C(C(=O)c1ccccc1)C(C(=O)C(=O)Nc1ccc(OC)cc1OC)C(=O)C(=O)c1ccc(C)cc1` (stereo unspecified), the TGI in the experiment on CAKI-1 renal, in the experiment on HOP-18 NSCLC, with SK-OV-3 ovarian, in the experiment on SR leukemia, in the experiment on HCT-15 colon and with K-562 leukemia was more than 100 µM throughout. In addition, the TGI in the experiment with M19-MEL melanoma, in the experiment with EKVX NSCLC and in the experiment with COLO 205 colon was more than 100 µM each time.

Regarding `O=C(CCN(C(=O)O)S(=O)(=O)c1ccc(NC(=O)c2ccccc2)cc1)Nc1ccccc1`, the TGI was more than 100 µM in the experiment on CAKI-1 renal; more than 100 µM in the experiment with HOP-18 NSCLC; more than 100 µM in the experiment on SK-OV-3 ovarian; more than 100 µM with SR leukemia; more than 75.2 µM in the experiment on HCT-15 colon; more than 83.2 µM in the experiment with K-562 leukemia. The TGI in the experiment on M19-MEL melanoma was more than 100 µM; in the experiment on EKVX NSCLC it was more than 100 µM; in the experiment on COLO 205 colon it was more than 80.2 µM.

As for `CC1(C)COC(C2(C)C(=O)C=C(c3ccccc3)c3ccccc32)=N1` (stereo unspecified), the TGI in the experiment on CAKI-1 renal was more than 100 µM; in the experiment on HOP-18 NSCLC, more than 100 µM; in the experiment on SK-OV-3 ovarian, 47.9 µM; in the experiment with SR leukemia, more than 100 µM; with HCT-15 colon it was more than 100 µM; in the experiment with K-562 leukemia it was more than 100 µM. Moreover, the TGI in the experiment on M19-MEL melanoma, in the experiment with EKVX NSCLC and in the experiment with COLO 205 colon was more than 100 µM each time.

Turning to `[N-]=[N+]=NC1(Cc2ccccc2)C(=O)c2cccc3c2N(CCC3)C1=O` (stereo unspecified), the TGI in the experiment on CAKI-1 renal, with HOP-18 NSCLC, in the experiment with SK-OV-3 ovarian, with SR leukemia, in the experiment on HCT-15 colon and in the experiment on K-562 leukemia was more than 100 µM in each case. In addition, the TGI in the experiment with M19-MEL melanoma and in the experiment with COLO 205 colon was more than 100 µM throughout.

With `CCCCOC(=O)CNC(=O)OC/C=C/C#CC#C/C=C/COC(=O)NCC(=O)OCCCC`, the GI50 in the experiment on CAKI-1 renal, with SK-OV-3 ovarian, in the experiment on K-562 leukemia, in the experiment on M19-MEL melanoma, with EKVX NSCLC and in the experiment on COLO 205 colon was more than 100 µM throughout. The TGI in the experiment with CAKI-1 renal was more than 100 µM; in the experiment with HOP-18 NSCLC, more than 10 µM; with SK-OV-3 ovarian, more than 100 µM; in the experiment on SR leukemia it was more than 10 µM; in the experiment with HCT-15 colon, more than 10 µM; with K-562 leukemia it was more than 100 µM. The TGI with M19-MEL melanoma, in the experiment on EKVX NSCLC and in the experiment with COLO 205 colon was more than 100 µM throughout.

Regarding `O=[N+]([O-])c1cccc(C2=NN(c3ccccc3)C[N+](c3ccc(Br)cc3)=N2)c1`, the TGI is more than 100 µM in the experiment on CAKI-1 renal; more than 100 µM in the experiment on HOP-18 NSCLC; more than 100 µM with SK-OV-3 ovarian; 16.9 µM with SR leukemia; more than 100 µM in the experiment on HCT-15 colon; more than 100 µM with K-562 leukemia. Further, the TGI in the experiment on M19-MEL melanoma, in the experiment on EKVX NSCLC and in the experiment on COLO 205 colon was more than 100 µM each time.

Regarding `O=c1/c(=C/c2ccccc2[N+](=O)[O-])sc2nnc(-c3ccco3)n12`, the TGI with CAKI-1 renal is more than 100 µM; with HOP-18 NSCLC, 57.8 µM; in the experiment on SK-OV-3 ovarian, more than 100 µM; in the experiment on SR leukemia, 70.9 µM; with HCT-15 colon it was 75.8 µM; with K-562 leukemia, more than 100 µM. In addition, the TGI with M19-MEL melanoma was 38.3 µM; in the experiment with EKVX NSCLC, more than 100 µM; in the experiment with COLO 205 colon, more than 100 µM.

Turning to `N#CN/C(N)=N/CO`, the TGI is more than 100 µM with CAKI-1 renal; more than 100 µM with HOP-18 NSCLC; more than 100 µM with SK-OV-3 ovarian; 72.4 µM with SR leukemia; more than 56.9 µM in the experiment with HCT-15 colon; more than 100 µM with K-562 leukemia. For the same molecule, the figures for the TGI in the experiment with M19-MEL melanoma, in the experiment on EKVX NSCLC and with COLO 205 colon were more than 100 µM, more than 100 µM and more than 57.8 µM, respectively.

For the molecule `COc1cccc2c1C(=O)c1c(O)c3c(c(O)c1C2=O)C[C@@](O)(C(=O)CO)C[C@@H]3OC1CC(N)CC(C)O1` (stereo partly specified), the GI50 in the experiment on CAKI-1 renal is 0.00936 µM and 0.00812 µM and 0.0263 µM; in the experiment with HOP-18 NSCLC it was 0.0713 µM; in the experiment on SK-OV-3 ovarian it was 0.0837 µM; with SR leukemia, 0.00548 µM and 0.02 µM; with HCT-15 colon it was 0.183 µM and 0.125 µM; with K-562 leukemia it was 0.0243 µM and 0.0414 µM. Further, the GI50 was 0.0504 µM and 0.119 µM in the experiment with HS 578T breast; 0.0363 µM in the experiment on M19-MEL melanoma; 0.152 µM in the experiment with EKVX NSCLC; 0.0823 µM in the experiment with COLO 205 colon. Moreover, the TGI in the experiment with CAKI-1 renal is 0.119 µM and 0.377 µM; with HOP-18 NSCLC, 0.906 µM and 0.445 µM; with SK-OV-3 ovarian, 0.94 µM and 3.52 µM; in the experiment on SR leukemia it was 0.492 µM and 0.632 µM; with HCT-15 colon it was 3.57 µM and 2.53 µM; in the experiment with K-562 leukemia it was 0.783 µM and 0.406 µM. Also, the TGI in the experiment on M19-MEL melanoma is 0.186 µM and 0.174 µM; in the experiment with EKVX NSCLC, 0.839 µM and 0.61 µM; with COLO 205 colon, 0.389 µM and 0.351 µM.

Turning to `COC(=O)C[C@](O)(CCCC(C)(C)O)C(=O)O[C@@H]1C(OC)=C[C@]23CCCN2CCc2cc4c(cc2[C@H]13)OCO4`, the GI50 with CAKI-1 renal was 0.252 µM; in the experiment on SK-OV-3 ovarian it was 0.0284 µM; in the experiment on HCT-15 colon it was 0.0944 µM; in the experiment on K-562 leukemia, 0.0292 µM; in the experiment on HS 578T breast, 0.0333 µM; in the experiment on EKVX NSCLC, 0.0486 µM. Also, the GI50 in the experiment on COLO 205 colon was 0.0283 µM. Moreover, the TGI is 1.61 µM and 1.2 µM with CAKI-1 renal; 0.418 µM in the experiment with HOP-18 NSCLC; 1.82 µM and 0.395 µM in the experiment with SK-OV-3 ovarian; 0.751 µM in the experiment with SR leukemia; 1.85 µM and 4.71 µM in the experiment with HCT-15 colon; 0.0866 µM in the experiment on M19-MEL melanoma. Moreover, the TGI with EKVX NSCLC was 0.688 µM and 0.472 µM.

As to `Clc1ccc2c(c1)[nH]c1c2nc2ccccn21`, the GI50 in the experiment with HOP-18 NSCLC was 41.9 µM; in the experiment with HCT-15 colon it was 40.8 µM and 20 µM; with K-562 leukemia, 23.9 µM and 3.96 µM; in the experiment with M19-MEL melanoma, 42.3 µM and 20.1 µM; with EKVX NSCLC, 51.9 µM and 21.6 µM. For the same molecule, the TGI is more than 100 µM in the experiment with HOP-18 NSCLC; > 100 µM and 63.7 µM with SK-OV-3 ovarian; more than 100 µM with SR leukemia; > 100 µM and 38.5 µM in the experiment on HCT-15 colon; 74.8 µM and 37.3 µM in the experiment on K-562 leukemia; > 100 µM and 47.6 µM with M19-MEL melanoma. Moreover, the TGI in the experiment with EKVX NSCLC is > 100 µM and 63.2 µM.

As for `O=C(Nc1ccn(CCO)c(=O)n1)c1ccccc1`, the TGI in the experiment on CAKI-1 renal, with HOP-18 NSCLC, in the experiment on SK-OV-3 ovarian, in the experiment with SR leukemia, in the experiment on HCT-15 colon and with K-562 leukemia was more than 100 µM each time. Moreover, the TGI in the experiment on M19-MEL melanoma, in the experiment with EKVX NSCLC and in the experiment with COLO 205 colon was more than 100 µM in each case.

`Cc1ccc(S(=O)(=O)N(C=O)N=C2CCN(Cc3ccccc3)CC2)cc1`: the TGI in the experiment on CAKI-1 renal, in the experiment with HOP-18 NSCLC, in the experiment on SK-OV-3 ovarian, in the experiment on SR leukemia, in the experiment with HCT-15 colon and with K-562 leukemia was more than 100 µM each time. Moreover, the TGI in the experiment on M19-MEL melanoma, with EKVX NSCLC and in the experiment on COLO 205 colon was more than 100 µM each time.
